# According to the SangsterLogP compilation:
# Test: method code SF-HPLC, from DOI: 10.1002/qsar.200860138
# Conditions: pH 3.0
row,SMILES,logD
1,COc1ccc(C(=O)c2cc(C(=O)c3ccc(OC)cc3)n(CC(=O)O)c2)cc1,3.15
2,O=C(O)Cn1ccc(-c2nc3ccccc3s2)c1,2.22
3,COc1ccc(C(=O)c2cccn2CC(=O)O)cc1,1.65
4,O=C(O)Cc1ccc(C(=O)c2ccccc2)[nH]1,1.87
5,O=C(O)Cn1ccc(C(=O)c2ccc([N+](=O)[O-])cc2)c1,0.93
6,Cc1ccc(C(=O)c2ccn(CC(=O)O)c2)cc1,1.27
7,O=C(O)Cn1ccc(C(=O)c2ccc(Cl)cc2)c1,1.95
8,O=C(O)Cn1cc(C(=O)c2ccccc2)c2ccccc21,2.57
9,O=C(O)Cn1ccc(C(=O)c2ccc3ccccc3c2)c1,2.27
10,O=C(O)Cn1cc(C(=O)c2ccccc2)cc1C(=O)c1ccccc1,2.12
11,O=C(O)Cn1ccc(C(=O)c2ccc(C(F)(F)F)cc2)c1,2
12,COc1ccc(C(=O)c2ccn(CC(=O)O)c2)cc1,1.57
